Values joined by “and” are separate entries in the source; they are usually repeats but may differ in a detail not shown here. Identical values can stand only once. Toxic doses and inconclusive results are not listed.
System: P388 leukemia ip, CD2F1 mice, survival T/C
Assay: NCI In Vivo Anticancer Drug Screen. Data for tumor model P388 Leukemia (intraperitoneal) in CD2F1 (CDF1) mice
Conditions: endpoint: median survival time, higher = longer survival
Method in brief: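 Mice carrying the transplanted tumor received test compound or vehicle. Survival was recorded in each group, and the value is the treated-group measurement divided by that of the vehicle-treated control group.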

[1] = dose: 50.0 mg/kg/injection, schedule: Q01DX009 (ip), vehicle: Klucel (hydroxypropylcellulose) (HPC)
[2] = dose: 100.0 mg/kg/injection, schedule: Q01DX009 (ip), vehicle: Klucel (hydroxypropylcellulose) (HPC)
[3] = dose: 200.0 mg/kg/injection, schedule: Q01DX009 (ip), vehicle: Klucel (hydroxypropylcellulose) (HPC)
[4] = dose: 50.0 mg/kg/injection, schedule: Q01DX009 (ip), vehicle: saline with Tween-80
[5] = dose: 100.0 mg/kg/injection, schedule: Q01DX009 (ip), vehicle: saline with Tween-80
[6] = dose: 200.0 mg/kg/injection, schedule: Q01DX009 (ip), vehicle: saline with Tween-80
[7] = dose: 50.0 mg/kg/injection, schedule: Q04DX003 (ip), vehicle: saline with Tween-80
[8] = dose: 100.0 mg/kg/injection, schedule: Q04DX003 (ip), vehicle: saline with Tween-80
[9] = dose: 200.0 mg/kg/injection, schedule: Q04DX003 (ip), vehicle: saline with Tween-80
[10] = dose: 50.0 mg/kg/injection, schedule: Q01DX009 (ip), vehicle: saline
[11] = dose: 100.0 mg/kg/injection, schedule: Q01DX009 (ip), vehicle: saline
[12] = dose: 200.0 mg/kg/injection, schedule: Q01DX009 (ip), vehicle: saline
[13] = dose: 50.0 mg/kg/injection, schedule: Q01DX005 (ip), vehicle: Klucel (hydroxypropylcellulose) (HPC)
[14] = dose: 100.0 mg/kg/injection, schedule: Q01DX005 (ip), vehicle: Klucel (hydroxypropylcellulose) (HPC)
[15] = dose: 200.0 mg/kg/injection, schedule: Q01DX005 (ip), vehicle: Klucel (hydroxypropylcellulose) (HPC)
[16] = dose: 60.0 mg/kg/injection, schedule: Q01DX005 (ip), vehicle: Klucel (hydroxypropylcellulose) (HPC)
[17] = dose: 120.0 mg/kg/injection, schedule: Q01DX005 (ip), vehicle: Klucel (hydroxypropylcellulose) (HPC)
[18] = dose: 240.0 mg/kg/injection, schedule: Q01DX005 (ip), vehicle: Klucel (hydroxypropylcellulose) (HPC)
[19] = dose: 25.0 mg/kg/injection, schedule: Q01DX009 (ip), vehicle: saline
[20] = dose: 60.0 mg/kg/injection, schedule: Q01DX005 (ip), vehicle: saline with Tween-80
[21] = dose: 15.0 mg/kg/injection, schedule: Q01DX005 (ip), vehicle: saline with Tween-80
[22] = dose: 30.0 mg/kg/injection, schedule: Q01DX005 (ip), vehicle: saline with Tween-80

## Cc1c(N2CCCC2)cc2c(c1-n1cccc1)C(C)(C)CC2(C)C
[1]
  T/C: 102 % of control
[2]
  T/C: 96 % of control
[3]
  T/C: 96 % of control

## O=c1cc(-c2ccccc2)oc2c(OCc3ccccc3)c(OCc3ccccc3)ccc12
dose: 100.0 mg/kg/injection, schedule: Q04DX002 (ip), vehicle: saline with Tween-80
  T/C: 100 % of control
dose: 200.0 mg/kg/injection, schedule: Q04DX002 (ip), vehicle: saline with Tween-80
  T/C: 102 % of control
dose: 400.0 mg/kg/injection, schedule: Q04DX002 (ip), vehicle: saline with Tween-80
  T/C: 96 % of control

## CCC(CCC(C)C1CCC2C3CC=C4CC(OP(=[Se])(c5ccccc5)c5ccccc5)CCC4(C)C3CCC12C)C(C)C (stereo unspecified)
dose: 13.75 mg/kg/injection, schedule: Q01DX001 (ip), vehicle: Klucel (hydroxypropylcellulose) (HPC)
  T/C: 102 % of control
dose: 27.5 mg/kg/injection, schedule: Q01DX001 (ip), vehicle: Klucel (hydroxypropylcellulose) (HPC)
  T/C: 106 % of control
dose: 55.0 mg/kg/injection, schedule: Q01DX001 (ip), vehicle: Klucel (hydroxypropylcellulose) (HPC)
  T/C: 104 % of control

## CN(C)c1ccc(NN=O)nc1
dose: 1.56 mg/kg/injection, schedule: Q01DX009 (ip), vehicle: water
  T/C: 122 % of control
dose: 6.25 mg/kg/injection, schedule: Q01DX009 (ip), vehicle: water
  T/C: 150 % of control
dose: 12.5 mg/kg/injection, schedule: Q01DX009 (ip), vehicle: water
  T/C: 110 % of control

## CSCCC(NC(=O)C(F)(F)F)C(=O)O (stereo unspecified)
[4]
  T/C: 106 % of control
[5]
  T/C: 94 % of control
[6]
  T/C: 94 % of control

## CCC(=O)c1ccc(OC(C)=O)cc1
[7]
  T/C: 103 % of control
[8]
  T/C: 103 % of control
[9]
  T/C: 96 % of control

## COC(=O)CS(=O)(=O)CS(=O)(=O)CC(=O)OC
[10]
  T/C: 107 % of control
[11]
  T/C: 100 % of control
[12]
  T/C: 97 % of control

## CCOC(=O)/C(=C/Nc1ccc(OCc2ccccc2)cc1)NC(=O)c1ccccc1
[4]
  T/C: 87 % of control
[10]
  T/C: 86 % of control
[5]
  T/C: 86 % of control
[11]
  T/C: 86 % of control
[6]
  T/C: 87 % of control
[12]
  T/C: 88 % of control
dose: 400.0 mg/kg/injection, schedule: Q01DX009 (ip), vehicle: saline with Tween-80
  T/C: 97 % of control
dose: 400.0 mg/kg/injection, schedule: Q01DX009 (ip), vehicle: saline
  T/C: 97 % of control

## NC(=O)NN1CC(=O)N(c2ccccc2)CC1=O
[4]
  T/C: 97 % of control
[5]
  T/C: 100 % of control
[6]
  T/C: 95 % of control

## CCOC(=O)C1=C(C)NC(=O)NC1c1ccccc1 (stereo unspecified)
[1]
  T/C: 100 % of control
[2]
  T/C: 107 % of control
[3]
  T/C: 113 % of control
dose: 400.0 mg/kg/injection, schedule: Q01DX009 (ip), vehicle: Klucel (hydroxypropylcellulose) (HPC)
  T/C: 109 % of control

## O=[N+]([O-])c1ccc2c(c1)C(N1CCOCC1)c1ccccc1-2 (stereo unspecified)
[13]
  T/C: 98 % of control
[14]
  T/C: 98 % of control
[15]
  T/C: 100 % of control

## O=C(CCCN1CCC(O)(c2cccc(C(F)(F)F)c2)CC1)c1ccc(F)cc1
dose: 18.75 mg/kg/injection, schedule: Q04DX003 (ip), vehicle: Klucel (hydroxypropylcellulose) (HPC)
  T/C: 108 % of control
dose: 37.5 mg/kg/injection, schedule: Q04DX003 (ip), vehicle: Klucel (hydroxypropylcellulose) (HPC)
  T/C: 112 % of control
dose: 75.0 mg/kg/injection, schedule: Q04DX003 (ip), vehicle: Klucel (hydroxypropylcellulose) (HPC)
  T/C: 88 % of control

## CC1=C2C3OC(=O)C(C)C3CCC2(C)C=C(Cl)C1=O (stereo unspecified)
[16]
  T/C: 111 % of control
[17]
  T/C: 98 % of control
[18]
  T/C: 101 % of control

## NC(=O)/C=C/C(N)=O
dose: 12.5 mg/kg/injection, schedule: Q01DX009 (ip), vehicle: saline with Tween-80
  T/C: 104 % of control
dose: 25.0 mg/kg/injection, schedule: Q01DX009 (ip), vehicle: saline with Tween-80
  T/C: 98 % of control
[4]
  T/C: 102 % of control
[5]
  T/C: 107 % of control
[8]
  T/C: 90 % of control
[6]
  T/C: 101 % of control
[9]
  T/C: 90 % of control

## Cc1noc(N)c1C
[19]
  T/C: 98 % of control
[10]
  T/C: 98 % of control
[11]
  T/C: 98 % of control
[12]
  T/C: 95 % of control

## O=S1(=O)c2ccccc2N(c2ccccc2)c2nccn21
dose: 100.0 mg/kg/injection, schedule: Q01DX001 (ip), vehicle: saline with Tween-80
  T/C: 101 % of control
dose: 200.0 mg/kg/injection, schedule: Q01DX001 (ip), vehicle: saline with Tween-80
  T/C: 98 % of control
dose: 400.0 mg/kg/injection, schedule: Q01DX001 (ip), vehicle: saline with Tween-80
  T/C: 92 % of control

## CCCCCCNC(=O)CNC(=O)C=[N+]=[N-]
[4]
  T/C: 101 % of control
[5]
  T/C: 101 % of control
[6]
  T/C: 97 % of control

## O=C(O)COc1cc(Cl)c(Cl)cc1Cl
dose: 6.25 mg/kg/injection, schedule: Q01DX005 (ip), vehicle: saline with Tween-80
  T/C: 98 % of control
dose: 12.5 mg/kg/injection, schedule: Q01DX005 (ip), vehicle: saline with Tween-80
  T/C: 100 % of control
dose: 25.0 mg/kg/injection, schedule: Q01DX005 (ip), vehicle: saline with Tween-80
  T/C: 98 % of control
dose: 50.0 mg/kg/injection, schedule: Q01DX005 (ip), vehicle: saline with Tween-80
  T/C: 98 % of control
dose: 100.0 mg/kg/injection, schedule: Q01DX005 (ip), vehicle: saline with Tween-80
  T/C: 106 % of control
dose: 200.0 mg/kg/injection, schedule: Q01DX005 (ip), vehicle: saline with Tween-80
  T/C: 97 % of control

## CCOC(=O)C1NC(=O)C(C)NC1=O (stereo unspecified)
[16]
  T/C: 103 % of control
[17]
  T/C: 107 % of control
[18]
  T/C: 100 % of control

## COc1cc(C(NC(N)=O)c2cc3c(cc2O)OCO3)cc(OC)c1OC (stereo unspecified)
[20]
  T/C: 106 % of control
dose: 120.0 mg/kg/injection, schedule: Q01DX005 (ip), vehicle: saline with Tween-80
  T/C: 102 % of control
dose: 240.0 mg/kg/injection, schedule: Q01DX005 (ip), vehicle: saline with Tween-80
  T/C: 100 % of control

## O=C1C=Cc2cccc3ccc(O)c1c23
[13]
  T/C: 104 % of control
[14]
  T/C: 109 % of control
[15]
  T/C: 104 % of control

## c1ccc(-c2c3ccccc3c(-c3ccccc3)c3c(-c4ccccc4)c4ccccc4c(-c4ccccc4)c23)cc1
[21]
  T/C: 105 % of control
[22]
  T/C: 106 % of control
[20]
  T/C: 91 % of control and 94 % of control

## O=C1c2ccc(-c3ccccc3)cc2C(=O)c2cc3c(cc21)OCO3
dose: 7.5 mg/kg/injection, schedule: Q01DX005 (ip), vehicle: saline with Tween-80
  T/C: 110 % of control
[21]
  T/C: 100 % of control
[22]
  T/C: 92 % of control

## CCCCNP(=O)(N1CC1C)N1CC1C (stereo unspecified)
dose: 8.25 mg/kg/injection, schedule: Q01DX009 (ip), vehicle: saline
  T/C: 112 % of control
dose: 12.5 mg/kg/injection, schedule: Q01DX009 (ip), vehicle: saline
  T/C: 120 % of control
[19]
  T/C: 109 % of control
[10]
  T/C: 86 % of control

## COc1ccc(C(=O)NC[n+]2ccccc2)cc1
dose: 25.0 mg/kg/injection, schedule: Q04DX003 (ip), vehicle: saline
  T/C: 100 % of control
dose: 50.0 mg/kg/injection, schedule: Q04DX003 (ip), vehicle: saline
  T/C: 100 % of control
dose: 100.0 mg/kg/injection, schedule: Q04DX003 (ip), vehicle: saline
  T/C: 104 % of control

## CC(CC(=O)c1ccccc1)=NCC(O)CN=C(C)CC(=O)c1ccccc1.[Cu] (stereo unspecified)
dose: 12.5 mg/kg/injection, schedule: Q04DX003 (ip), vehicle: saline with Tween-80
  T/C: 96 % of control
dose: 25.0 mg/kg/injection, schedule: Q04DX003 (ip), vehicle: saline with Tween-80
  T/C: 93 % of control
[7]
  T/C: 96 % of control
[8]
  T/C: 94 % of control and 98 % of control
[9]
  T/C: 101 % of control and 92 % of control
dose: 400.0 mg/kg/injection, schedule: Q04DX003 (ip), vehicle: saline with Tween-80
  T/C: 96 % of control

— PubChem BioAssay AID330 (DTP/NCI, 2004)
